The source of these data is PubChem BioAssay AID248 (DTP/NCI, 2004).

Structures are written as SMILES. Where “and” joins values, the source holds several entries; their conditions need not be identical. Equal values may be shown once. Inconclusive results and toxic doses are left out.

The test system of this test is L1210 leukemia ip in BDF1 mice, survival T/C. Briefly: NCI In Vivo Anticancer Drug Screen. Data for tumor model L1210 Leukemia (intraperitoneal) in B6D2F1 (BDF1) mice. The conditions noted are these: endpoint: mean survival time, higher = longer survival. The essentials:
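Tumor cells were implanted, animals were treated, and survival was followed. The result divides the treated measurement by the vehicle-control measurement.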

[1] abbreviates: dose: 50.0 mg/kg/injection, schedule: Q04DX003 (ip), vehicle: saline with Tween-80.
[2] abbreviates: dose: 100.0 mg/kg/injection, schedule: Q01DX001 (ip), vehicle: saline with Tween-80.
The mark [3] stands for this setting: dose: 200.0 mg/kg/injection, schedule: Q01DX001 (ip), vehicle: saline with Tween-80.
Where [4] appears, read: dose: 400.0 mg/kg/injection, schedule: Q01DX001 (ip), vehicle: saline with Tween-80.
The mark [5] stands for this setting: dose: 25.0 mg/kg/injection, schedule: Q01DX009 (ip), vehicle: saline.
Where [6] appears, read: dose: 50.0 mg/kg/injection, schedule: Q01DX009 (ip), vehicle: saline.
[7] abbreviates: dose: 100.0 mg/kg/injection, schedule: Q01DX001 (ip), vehicle: saline.
[8] abbreviates: dose: 100.0 mg/kg/injection, schedule: Q04DX003 (ip), vehicle: Klucel (hydroxypropylcellulose) (HPC).
Where [9] appears, read: dose: 200.0 mg/kg/injection, schedule: Q04DX003 (ip), vehicle: Klucel (hydroxypropylcellulose) (HPC).
The mark [10] stands for this setting: dose: 400.0 mg/kg/injection, schedule: Q04DX003 (ip), vehicle: Klucel (hydroxypropylcellulose) (HPC).

For `CCCCCCCCCCCCCCCCS(=O)(=O)c1ccc(Cl)cc1`, the T/C is 91 % of control (dose: 100.0 mg/kg/injection, schedule: Q01DX009 (ip), vehicle: gum acacia); 94 % of control (dose: 100.0 mg/kg/injection, schedule: Q04DX003 (ip), vehicle: gum acacia); 92 % of control (dose: 200.0 mg/kg/injection, schedule: Q01DX009 (ip), vehicle: gum acacia); 93 % of control (dose: 200.0 mg/kg/injection, schedule: Q04DX003 (ip), vehicle: gum acacia); 91 % of control (dose: 400.0 mg/kg/injection, schedule: Q01DX009 (ip), vehicle: gum acacia); 86 % of control (dose: 400.0 mg/kg/injection, schedule: Q04DX003 (ip), vehicle: gum acacia).

Take `S=c1[nH]c2ccc(Cl)cc2[nH]1`: the T/C is 100 % of control (dose: 25.0 mg/kg/injection, schedule: Q04DX003 (ip), vehicle: saline with Tween-80); 98 % of control under setting [1]; 100 % of control (dose: 100.0 mg/kg/injection, schedule: Q04DX003 (ip), vehicle: saline with Tween-80).

`CC(=O)NC1C(OC(=O)c2ccccc2)OC(CO)C(O)C1OC(=O)c1ccccc1` (stereo not given): the T/C by setting is: under setting [2], 101 % of control; under setting [3], 105 % of control; under setting [4], 94 % of control.

Regarding `NNC(=O)c1ccccc1`, the T/C was 100 % of control (dose: 12.5 mg/kg/injection, schedule: Q01DX009 (ip), vehicle: saline); 97 % of control under setting [5]; 90 % of control (dose: 50.0 mg/kg/injection, schedule: Q01DX001 (ip), vehicle: saline); 111 % of control under setting [6]; 97 % of control under setting [1]; 108 % of control under setting [7]. Further, the T/C (dose: 100.0 mg/kg/injection, schedule: Q01DX009 (ip), vehicle: saline) is 100 % of control.

As to `CC1(C)CC(=O)CC(C)(CN)C1` (stereo not given), the T/C under setting [8] is 100 % of control, the T/C under setting [9] was 104 % of control and the T/C under setting [10] was 100 % of control.

In the case of `Cc1ccc(S(=O)(=O)N2CCCC(Br)(Br)C(=O)c3ccccc32)cc1`, the T/C is 100 % of control under setting [8], 97 % of control under setting [9] and 96 % of control under setting [10].

As to `Cn1c(=O)c2c(nc(N/N=C/c3ccc(O)cc3)n2C)n(C)c1=O`, the T/C runs as follows: (dose: 44.0 mg/kg/injection, schedule: Q01DX Z (ip), vehicle: methylcellulose (MC)) 94 % of control; (dose: 66.0 mg/kg/injection, schedule: Q01DX Z (ip), vehicle: methylcellulose (MC)) 97 % of control; (dose: 100.0 mg/kg/injection, schedule: Q01DX Z (ip), vehicle: methylcellulose (MC)) 96 % of control.

As to `CCCCNC(C)C(=O)c1ccccc1` (stereo not given), the T/C runs as follows: (dose: 12.5 mg/kg/injection, schedule: Q04DX003 (ip), vehicle: saline) 100 % of control; under setting [5], 101 % of control; (dose: 25.0 mg/kg/injection, schedule: Q04DX003 (ip), vehicle: saline) 90 % of control; under setting [6], 101 % of control; (dose: 50.0 mg/kg/injection, schedule: Q04DX003 (ip), vehicle: saline) 100 % of control; (dose: 100.0 mg/kg/injection, schedule: Q04DX003 (ip), vehicle: saline) 94 % of control.

Consider `CCCCCCCCCCCC(=O)OCC1(C)COC(c2ccccc2)=N1` (stereo not given), for which the T/C was 97 % of control under setting [2], 104 % of control under setting [3] and 104 % of control under setting [4].

As to `N/C(=N\N=C\c1c(F)c(F)c(F)c(F)c1F)N[N+](=O)[O-]`, the T/C is, setting by setting: (dose: 100.0 mg/kg/injection, schedule: Q01DX009 (ip), vehicle: saline with Tween-80) 102 % of control; (dose: 200.0 mg/kg/injection, schedule: Q01DX009 (ip), vehicle: saline with Tween-80) 97 % of control; (dose: 400.0 mg/kg/injection, schedule: Q01DX009 (ip), vehicle: saline with Tween-80) 94 % of control.

Take `CCC1(Sc2ncnc3nc[nH]c23)C(=O)NC(=O)NC1=O`: the T/C is 124 % of control (dose: 6.25 mg/kg/injection, schedule: Q01DX015 (ip), vehicle: alkali diluted with saline); 154 % of control (dose: 22.0 mg/kg/injection, schedule: Q01DX015 (ip), vehicle: saline); 157 % of control (dose: 33.0 mg/kg/injection, schedule: Q01DX015 (ip), vehicle: saline); 164 % of control (dose: 50.0 mg/kg/injection, schedule: Q01DX015 (ip), vehicle: saline); 183 % of control (dose: 75.0 mg/kg/injection, schedule: Q01DX015 (ip), vehicle: saline); 103 % of control (dose: 100.0 mg/kg/injection, schedule: Q01DX001 (ip), vehicle: alkali diluted with saline). Besides, the T/C is 106 % of control (dose: 200.0 mg/kg/injection, schedule: Q01DX001 (ip), vehicle: alkali diluted with saline); 166 % of control (dose: 200.0 mg/kg/injection, schedule: Q01DX015 (ip), vehicle: alkali diluted with saline); 114 % of control (dose: 400.0 mg/kg/injection, schedule: Q01DX001 (ip), vehicle: alkali diluted with saline); 109 % of control (dose: 400.0 mg/kg/injection, schedule: Q01DX015 (ip), vehicle: alkali diluted with saline).

Turning to `Cc1nccn1-c1ccc(Cl)cc1N=Cc1ccc(N(CCCl)CCCl)cc1Cl`, the T/C is 95 % of control (dose: 100.0 mg/kg/injection, schedule: Q04DX002 (ip), vehicle: Klucel (hydroxypropylcellulose) (HPC)); 95 % of control (dose: 200.0 mg/kg/injection, schedule: Q04DX002 (ip), vehicle: Klucel (hydroxypropylcellulose) (HPC)); 106 % of control (dose: 400.0 mg/kg/injection, schedule: Q04DX002 (ip), vehicle: Klucel (hydroxypropylcellulose) (HPC)).

With `CCN(CCO)CC(C)Nc1ccc([N+](=O)[O-])c2sc3ccccc3c(=O)c12` (stereo not given), the T/C (dose: 1.5 mg/kg/injection, schedule: Q01DX Z (ip), vehicle: carboxymethylcellulose (CMC)) is 96 % of control; the T/C (dose: 3.0 mg/kg/injection, schedule: Q01DX Z (ip), vehicle: carboxymethylcellulose (CMC)) was 107 % of control; the T/C (dose: 3.5 mg/kg/injection, schedule: Q01DX Z (ip), vehicle: saline) is 101 % of control; the T/C (dose: 5.3 mg/kg/injection, schedule: Q01DX Z (ip), vehicle: saline) is 115 % of control; the T/C (dose: 6.0 mg/kg/injection, schedule: Q01DX Z (ip), vehicle: carboxymethylcellulose (CMC)) was 100 % of control; the T/C (dose: 8.0 mg/kg/injection, schedule: Q01DX Z (ip), vehicle: saline) is 104 % of control. Also, the T/C (dose: 10.0 mg/kg/injection, schedule: Q01DX Z (ip), vehicle: other) was 107 % of control; the T/C (dose: 12.0 mg/kg/injection, schedule: Q01DX Z (ip), vehicle: carboxymethylcellulose (CMC)) was 110 % of control; the T/C (dose: 12.0 mg/kg/injection, schedule: Q01DX Z (ip), vehicle: saline) is 105 % of control and 89 % of control; the T/C (dose: 18.0 mg/kg/injection, schedule: Q01DX Z (ip), vehicle: saline) was 91 % of control; the T/C (dose: 30.0 mg/kg/injection, schedule: Q01DX Z (ip), vehicle: other) is 156 % of control; the T/C (dose: 40.0 mg/kg/injection, schedule: Q01DX Z (ip), vehicle: saline) is 166 % of control. In addition, the T/C by setting is: (dose: 60.0 mg/kg/injection, schedule: Q01DX Z (ip), vehicle: saline) 104 % of control; (dose: 90.0 mg/kg/injection, schedule: Q01DX Z (ip), vehicle: other) 121 % of control; (dose: 90.0 mg/kg/injection, schedule: Q01DX Z (ip), vehicle: saline) 89 % of control; (dose: 91.5 mg/kg/injection, schedule: Q01DX Z (ip), vehicle: saline) 160 % of control; under setting [7], 114 % of control; (dose: 137.0 mg/kg/injection, schedule: Q01DX Z (ip), vehicle: saline) 124 % of control. Besides, the T/C (dose: 400.0 mg/kg/injection, schedule: Q01DX001 (ip), vehicle: saline) is 167 % of control and 175 % of control.

As to `O=C1CCCCCCCCCC/C1=N/O`, the T/C was 111 % of control (dose: 100.0 mg/kg/injection, schedule: Q01DX001 (ip), vehicle: Klucel (hydroxypropylcellulose) (HPC)); 101 % of control (dose: 200.0 mg/kg/injection, schedule: Q01DX001 (ip), vehicle: Klucel (hydroxypropylcellulose) (HPC)); 92 % of control (dose: 400.0 mg/kg/injection, schedule: Q01DX001 (ip), vehicle: Klucel (hydroxypropylcellulose) (HPC)).
